# Results: patent US20230073755A1, “USE OF IGF1 IN COMBINATION WITH IGFEC24 IN PREPARATION OF MEDICINE FOR PROMOTING TISSUE REPAIR AND REGENERATION” (Chongqing University, priority 2020, published 2023)
# What was measured:
# myocardial tissue = test: Myocardial injury repair in rat model of isoproterenol (ISO) myocardial injury; assay type: in vivo
# Experimental: The rats were randomly selected and assigned into injection and control groups, with three rats in each group. The myocardial injury model was constructed by injecting an overdose of ISO at a dose of 80 mg/kg. The rats were fixed with a fixator to expose the abdomen; the rats were disinfected by wiping with alcohol cotton balls, and the amount of ISO injected was matched to their body weight, and then the rats were injected intraperitoneally for 1 week.
# The rat was fixed with a fixator to keep its tail naturally down; before injection, the rat's tail was soaked in warm water for 3-4 min until the tail vein was seen clearly; then the rat's tail was wiped with an alcohol cotton ball for disinfection; then, when injecting the protein, the needle was injected at a minimal angle to the tail vein to keep it horizontal; after pushing the drug into the blood vessel, the wound was pressed with an alcohol cotton ball, and then the needle was withdrawn.
# In order to fully remove the paraffin from the top of the slices, Paraffin sections of myocardial tissues were completely immersed in xylene twice, each time for 15 min; then the paraffin sections of cardiac tissues were placed into 100% ethanol solution, 95% ethanol solution, 75% ethanol solution, 50% ethanol solution and 3dH2O in turn, with a soaking time of 10 min for each gradient. The paraffin sections were removed and hematoxylin was added dropwise at the myocardial tissue in the sections for nuclear staining with a staining time of 8 min. immediately after the staining was completed, the sections were rinsed with tap water for 5 min, then differentiation solution was added dropwise at the myocardial tissue in the sections with a differentiation time of 20 s, and finally the sections were rinsed with tap water for 5 min. the sections were removed and eosin staining solution was added dropwise at the tissue with a staining time of 1 min, and finally the sections were rinsed with tap water Rinse the slices for 5 min. soak the paraffin sections according to a gradient of 50%, 75%, 95% and 100% ethanol, each for 5 min; then soak them twice in xylene for 2 min/time. Paraffin sections were removed from xylene, keeping xylene still retained on the sections; neutral gum was quickly added dropwise, and coverslips were picked up with forceps, and the coverslips were put down slowly.
# The sections were soaked in xylene twice for 15 min/time; soaked sequentially according to a gradient of anhydrous ethanol, 95%, 75% and 50% alcohol solutions, each gradient for 5 min; finally the sections were soaked in triple distilled water for 5 min. equal amounts of Weigert iron hematoxylin A solution and B solution were mixed, and the mixture was added dropwise to the tissues, stained The sections were removed, and differentiation solution was added dropwise to the myocardial tissue for 20 s, and rinsed with tap water for 5 min. bluing solution was added dropwise to the tissue of the sections, and returned to blue treatment for 5 min, and rinsed with tap water for 5 min. lixin red magenta staining solution was added dropwise to the tissue of the sections, and staining time was 1 min, and rinsed with tap water for 5 min. 20% of Add phosphomolybdic acid solution dropwise on the tissue, stain for 5 min, pour off the phosphomolybdic acid solution on the section. Aniline blue staining solution was added dropwise for 5 min to re-stain the sections, and the aniline blue solution on the sections was poured off. […]
# sciatic nerve = test: Sciatic nerve injury repair in rat sciatic nerve injury (clamp) model; assay type: in vivo, SD rats
# Description: The 8-week-old female SD rats were randomly divided into sham-operated and operated groups, with 3 rats in each group. SD rats were anesthetized by intraperitoneal injection of 10% chloral hydrate, and after successful anesthesia, the rats were fixed, and their right hind limbs were exposed by shaving with a shaver, and disinfected twice with 75% alcohol. A 3-4 cm incision was made with a scalpel at the posterior lateral femur of the right hind limb to expose the biceps femoris muscle, and the muscle was bluntly separated with surgical scissors to expose the thick sciatic nerve. The sciatic nerve was clamped vertically with a microhemostatic forceps, buckled to the third buckle, maintained for 10 s, repeated 3 times at 5 s/interval, resulting in an injury area approximately 2 mm wide, and the sciatic nerve was put back in place and sutured layer by layer. Penicillin (40,000 units/100g) was injected intraperitoneally for three consecutive days to prevent wound infection. […]
# A dark box runway of 70 cm in length, 10 cm in width and 10 cm in height was made. […] The footprint length (PL), toe width (TS) and middle toe width (IT) were then measured and brought into the Bain formula for calculation.Bain formula: SFI=109.5 (ETS−NTS)/NTS−38.3 (EPL−NPL)/NPL+13.3(EIT−NIT)/NIT−8.8. […]
substance,measurement,setting,value
"IGF1-24: 97 amino acids: amino-terminal 70 identical to IGF1, carboxyl-terminal 24 identical to IGFEc24 peptide, joined by three Gly linkers (SEQ ID NO: 4)",Masson staining: area of cardiac fibrosis,"myocardial tissue; ISO+IGF1-24-treated group vs ISO-injured group, FIG. 12",significantly reduced
same,HE staining of cardiac tissue: repair effect,"myocardial tissue; ISO+IGF1-24 group compared with ISO+PBS group, FIG. 10",the repair effect was obvious
same,rate of PH3 positive cells in myocardial tissue,"myocardial tissue; after ISO injury and IGF1-24 treatment, injury without treatment 0.1%, FIG. 13A-B",0.8%
same,rate of Edu positive cells in myocardial tissue,"myocardial tissue; after ISO injury and IGF1-24 treatment, injury without treatment 0.5%, FIG. 13A-B",1.4%
same,number of Ki67-positive cells (immunohistochemistry of heart tissue),"myocardial tissue; treatment group vs injury group, FIG. 13C",differed significantly
same,expression of GAP-43 in the sciatic nerve (immunofluorescence),"sciatic nerve; after 14 days of IGF1-24 100 μg/kg intraperitoneally, significantly different from control and Injury groups, FIG. 15",remained at a high level
same,sciatic nerve index (SFI),"sciatic nerve; treated group after IGF1-24 treatment, footprint analysis, Bain formula, FIG. 17",close to that of the uninjured group
